Experimental findings from US11512049B2, “Pleuromutilin 2-[(diphenylmethyl)thio] acetic acid ester with anti-drug resistant bacteria activity and a method of preparing the same” (SHAANXI UNIVERSITY OF SCIENCE AND TECHNOLOGY, priority 2021, dated 2022) are described below.

Common to all, as to assay type: cell-based
Conditions in all cases: for Zone of inhibition: 30 μg/tablet paper, 37° C., 24 h, ≥17 mm sensitive, 15-16 mm intermediary, ≤14 mm drug resistance; for Inhibitory effect (in words): summary of FIGS. 1-3 and Table 1

Experiment [1] has as its system MRSA 18-171 (multi-resistant Staphylococcus aureus 171). Kind of experiment: Paper diffusion method drug sensitivity test, MRSA 18-171. On the procedure: (§1) The antimicrobial efficacy was determined by a paper diffusion method drug sensitivity test.
(§2) Experimental strains: multi-resistant Staphylococcus aureus 171, multi-resistant Staphylococcus aureus 575, multi-resistant Staphylococcus aureus 596. The experimental strains were provided by Huashan Hospital Affiliated to Fudan University (Institute of Antibiotic of Fudan University).
(§3) Drug sensitive paper: The drug sensitive paper is a special drug sensitive paper with a diameter of 6.35 mm and a water absorption of 0.02 mL. The control drug was vancomycin (30 μg/tablet); the test drug was pleuromutilin 2-[(diphenylmethyl)thio]acetic acid ester (30 μg/tablet).
(§4) The experimental strains were inoculated in non-selective medium and placed in air at 37° C. for 24 h. Pick a single colony that grows well and inoculate it into broth medium, incubate at 35° C.±2° C. for 6 hours, and use LA broth medium to calibrate the concentration of the bacterial solution to 0.5 Mie turbidimetric tube ([…]). A bacterial suspension is obtained.
(§5) LB dry powder was weighed, sterilized at 103.4 Kpa, 121.3° C. high-pressure steam for 15 min, and then placed it in a 40° C.-50° C. water bath. A sterile empty plate (inner diameter 9 cm) was placed on the surface of the ultra-clean table water table, and […] to the plate. The thickness of each plate was 3 mm to 4 mm. After the plate was cooled at room temperature, it was stored in the refrigerator at 2° C.-8° C. A sterile cotton swab was used to dip the bacterial solution and to evenly coat the surface of the LB plate 3 times. After inoculation of the bacterial suspension, the LB plate was dried at room temperature for 3 min to 5 min. Sterile forceps were used to closely attach the antibacterial drug paper to the dish. The dish was put upside down and placed in a 37° C. incubator for 24 h. The results were observed by measuring the diameter. Taking 0.5% DMSO solution as a negative control, the antibacterial activity is expressed by the diameter of the inhibition zone. The inhibition zone ≥17 mm, sensitive; the inhibition zone of 15 mm-16 mm, intermediary; the inhibition zone ≤14 mm, drug resistance.

Experiment [2] deals with MRSA 18-575 (multi-resistant Staphylococcus aureus 575). Kind of experiment: Paper diffusion method drug sensitivity test, MRSA 18-575. On the procedure:
as §1, §2, §3, §4, §5

Experiment [3] deals with MRSA 18-596 (multi-resistant Staphylococcus aureus 596). Kind of experiment: Paper diffusion method drug sensitivity test, MRSA 18-596. On the procedure: as §1, §2, §3, §4, §5

Regarding `C=C[C@]1(C)C[C@@H](OC(=O)COC(=O)CSC(c2ccccc2)c2ccccc2)[C@]2(C)[C@H](C)CC[C@]3(CCC(=O)[C@H]32)[C@@H](C)[C@@H]1O`, the values for the Zone of inhibition in experiment [1], in experiment [2] and in experiment [3] were 21 mm, 23 mm and 25 mm, respectively. The “Inhibitory effect (in words)” value in experiment [1], in experiment [2] and in experiment [3] was “strong inhibitory effects” in each case.
In the case of `CN[C@H](CC(C)C)C(=O)N[C@H]1C(=O)N[C@@H](CC(N)=O)C(=O)N[C@H]2C(=O)N[C@H]3C(=O)N[C@H](C(=O)N[C@H](C(=O)O)c4cc(O)cc(O)c4-c4cc3ccc4O)[C@H](O)c3ccc(c(Cl)c3)Oc3cc2cc(c3O[C@@H]2O[C@H](CO)[C@@H](O)[C@H](O)[C@H]2O[C@H]2C[C@](C)(N)[C@H](O)[C@H](C)O2)Oc2ccc(cc2Cl)[C@H]1O` [Vancomycin, vancomycin], the values for the Zone of inhibition in experiment [1], in experiment [2] and in experiment [3] were 17 mm, 18 mm and 21 mm, respectively.
Consider `O=C(O)CSC(c1ccccc1)c1ccccc1` [2-[(Diphenylmethyl)thio]acetic acid], for which the Zone of inhibition in experiment [1], in experiment [2] and in experiment [3] was 0 mm in each case. The “Inhibitory effect (in words)” value in experiment [1], in experiment [2] and in experiment [3] was “no inhibitory effect” in each case.
Regarding `C=C[C@]1(C)C[C@@H](OC(=O)CO)[C@]2(C)[C@H](C)CC[C@]3(CCC(=O)[C@H]32)[C@@H](C)[C@@H]1O` [Pleuromutilin], the Zone of inhibition in experiment [1], in experiment [2] and in experiment [3] was 0 mm throughout. Besides, the “Inhibitory effect (in words)” value in experiment [1], in experiment [2] and in experiment [3] was “no inhibitory effect” throughout.
